Assay results: patent US12344600B2, “c-Myc mRNA translation modulators and uses thereof in the treatment of cancer” (Anima Biotech Inc., priority 2022, dated 2025)

Tested on: c-Myc
Assay: c-Myc immunofluorescence assay
Type: cell-based, human
Settings: A549 cells, 24 hours, anti-c-Myc immunofluorescence
Summary of the method: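 A549 NSCLC cells grown 48 h, then treated 24 h with increasing compound concentrations; fixed in 4% paraformaldehyde, stained with anti-c-Myc antibody plus fluorescent secondary and DAPI. Per-cell c-Myc fluorescence quantified by high-content imaging at 20×; dose-response fitted by logistic regression to give EC50.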

With `COc1ccc(-c2noc(N3CCC(C(=O)NCC4CCN(Cc5cccc(F)c5)C4)CC3)n2)cc1` (centres unmarked) [Compound 332, N-((1-(3-fluorobenzyl)pyrrolidin-3-yl)methyl)-1-(3-(4-methoxyphenyl)-1,2,4-oxadiazol-5-yl)piperidine-4-carboxamide] the “Myc Efficacy (−LogEC50)” value was “++ (++ ≥5 and <6)”.

In the case of `COc1ccc(-c2noc(N3CCC(C(=O)NCC4CCN(Cc5cncc(F)c5)C4)CC3)n2)cc1` (centres unmarked) [Compound 333, N-((1-((5-fluoropyridin-3-yl)methyl)pyrrolidin-3-yl)methyl)-1-(3-(4-methoxyphenyl)-1,2,4-oxadiazol-5-yl)piperidine-4-carboxamide], the “Myc Efficacy (−LogEC50)” value is reported as “+ (+ >3 and <5)”.

`COc1ccc(-c2noc(N3CCC(C(=O)NCC4CCN(Cc5ncccc5F)C4)CC3)n2)cc1` (centres unmarked) [Compound 334, N-((1-((3-fluoropyridin-2-yl)methyl)pyrrolidin-3-yl)methyl)-1-(3-(4-methoxyphenyl)-1,2,4-oxadiazol-5-yl)piperidine-4-carboxamide] was tested, and the “Myc Efficacy (−LogEC50)” value was “+ (+ >3 and <5)”.

In the case of `COc1ccc(-c2noc(N3CCC(C(=O)NCC4CCN(Cc5ccc(F)cn5)C4)CC3)n2)cc1` (centres unmarked) [Compound 335, N-((1-((5-fluoropyridin-2-yl)methyl)pyrrolidin-3-yl)methyl)-1-(3-(4-methoxyphenyl)-1,2,4-oxadiazol-5-yl)piperidine-4-carboxamide], the “Myc Efficacy (−LogEC50)” value is reported as “++ (++ ≥5 and <6)”.

For `COc1ccc(-c2noc(N3CCC(C(=O)NCC4CCN(CC5CCC5)C4)CC3)n2)cc1` (centres unmarked) [Compound 336, N-((1-(cyclobutylmethyl)pyrrolidin-3-yl)methyl)-1-(3-(4-methoxyphenyl)-1,2,4-oxadiazol-5-yl)piperidine-4-carboxamide], the “Myc Efficacy (−LogEC50)” value was “++ (++ ≥5 and <6)”.

`COc1ccc(-c2noc(N3CCC(C(=O)NCC4CCN(CC5CC5(C)C)C4)CC3)n2)cc1` (centres unmarked) [Compound 337, N-((1-((2,2-dimethylcyclopropyl)methyl)pyrrolidin-3-yl)methyl)-1-(3-(4-methoxyphenyl)-1,2,4-oxadiazol-5-yl)piperidine-4-carboxamide] was tested, and the “Myc Efficacy (−LogEC50)” value was “++ (++ ≥5 and <6)”.

`COc1ccc(-c2noc(N3CCC(C(=O)NCC4CCN(CC5CCCCC5)C4)CC3)n2)cc1` (centres unmarked) [Compound 338, N-((1-(cyclohexylmethyl)pyrrolidin-3-yl)methyl)-1-(3-(4-methoxyphenyl)-1,2,4-oxadiazol-5-yl)piperidine-4-carboxamide] was tested, and the “Myc Efficacy (−LogEC50)” value was “++ (++ ≥5 and <6)”.

With `COc1ccc(-c2noc(N3CCC(C(=O)NCC4CCN(Cc5ccc(O)cc5)C4)CC3)n2)cc1` (centres unmarked) [Compound 339, N-((1-(4-hydroxybenzyl)pyrrolidin-3-yl)methyl)-1-(3-(4-methoxyphenyl)-1,2,4-oxadiazol-5-yl)piperidine-4-carboxamide] the “Myc Efficacy (−LogEC50)” value was “++ (++ ≥5 and <6)”.

For `COc1ccc(-c2noc(N3CCC(C(=O)NCC4CCN(Cc5ccccn5)C4)CC3)n2)cc1` (centres unmarked) [Compound 340, 1-(3-(4-methoxyphenyl)-1,2,4-oxadiazol-5-yl)-N-((1-(pyridin-2-ylmethyl)pyrrolidin-3-yl)methyl)piperidine-4-carboxamide], the “Myc Efficacy (−LogEC50)” value was “++ (++ ≥5 and <6)”.

In the case of `COc1ccc(-c2noc(N3CCC(C(=O)NCC4CCN(Cc5cncs5)C4)CC3)n2)cc1` (centres unmarked) [Compound 341, 1-(3-(4-methoxyphenyl)-1,2,4-oxadiazol-5-yl)-N-((1-(thiazol-5-ylmethyl)pyrrolidin-3-yl)methyl)piperidine-4-carboxamide], the “Myc Efficacy (−LogEC50)” value is reported as “+ (+ >3 and <5)”.

In the case of `COc1ccc(-c2noc(N3CCC(C(=O)NCC4CCN(Cc5ccccc5)C4)CC3)n2)cc1` (centres unmarked) [Compound 342, N-((1-benzylpyrrolidin-3-yl)methyl)-1-(3-(4-methoxyphenyl)-1,2,4-oxadiazol-5-yl)piperidine-4-carboxamide], the “Myc Efficacy (−LogEC50)” value is reported as “++ (++ ≥5 and <6)”.

For `COc1ccc(-c2noc(N3CCC(C(=O)NCC4CCN(CC(F)(F)F)C4)CC3)n2)cc1` (centres unmarked) [Compound 343, 1-(3-(4-methoxyphenyl)-1,2,4-oxadiazol-5-yl)-N-((1-(2,2,2-trifluoroethyl)pyrrolidin-3-yl)methyl)piperidine-4-carboxamide], the “Myc Efficacy (−LogEC50)” value was “+ (+ >3 and <5)”.

For `C#CCCC1(CCOc2cc(-c3noc(N4CCC(C(=O)NCC5CCN(Cc6ccc(C)cc6)C5)CC4)n3)ccc2OC)N=N1` (centres unmarked) [Compound 344, 1-(3-(3-(2-(3-(but-3-yn-1-yl)-3H-diazirin-3-yl)ethoxy)-4-methoxyphenyl)-1,2,4-oxadiazol-5-yl)-N-((1-(4-methylbenzyl)pyrrolidin-3-yl)methyl)piperidine-4-carboxamide], the “Myc Efficacy (−LogEC50)” value was “++ (++ ≥5 and <6)”.

With `COc1ccc(-c2noc(N3CCN(C(=O)NCC4CCN(c5ccccc5)C4)CC3)n2)cc1` (centres unmarked) [Compound 345, 4-(3-(4-methoxyphenyl)-1,2,4-oxadiazol-5-yl)-N-((1-phenylpyrrolidin-3-yl)methyl)piperazine-1-carboxamide] the “Myc Efficacy (−LogEC50)” value was “+ (+ >3 and <5)”.

For `COc1ccc(-c2noc(N3CCC(C(=O)NC4CCN(c5ccccc5)C4)CC3)n2)cc1` (centres unmarked) [Compound 346, 1-(3-(4-methoxyphenyl)-1,2,4-oxadiazol-5-yl)-N-(1-phenylpyrrolidin-3-yl)piperidine-4-carboxamide], the “Myc Efficacy (−LogEC50)” value was “++ (++ ≥5 and <6)”.

With `COc1ccc(-c2noc(N3CCC(C(=O)NCC4CCN(CC5CCOC5)C4)CC3)n2)cc1` (centres unmarked) [Compound 347, 1-(3-(4-methoxyphenyl)-1,2,4-oxadiazol-5-yl)-N-((1-((tetrahydrofuran-3-yl)methyl)pyrrolidin-3-yl)methyl)piperidine-4-carboxamide] the “Myc Efficacy (−LogEC50)” value was “+ (+ >3 and <5)”.

In the case of `COc1ccc(-c2noc(N3CCC(C(=O)NCC4CCN(Cc5ccncc5C)C4)CC3)n2)cc1` (centres unmarked) [Compound 348, 1-(3-(4-methoxyphenyl)-1,2,4-oxadiazol-5-yl)-N-((1-((3-methylpyridin-4-yl)methyl)pyrrolidin-3-yl)methyl)piperidine-4-carboxamide], the “Myc Efficacy (−LogEC50)” value is reported as “++ (++ ≥5 and <6)”.

`COc1ccc(-c2noc(N3CCC(C(=O)NCC4CCN(Cc5cccc(C)c5)C4)CC3)n2)cc1` (centres unmarked) [Compound 349, 1-(3-(4-methoxyphenyl)-1,2,4-oxadiazol-5-yl)-N-((1-(3-methylbenzyl)pyrrolidin-3-yl)methyl)piperidine-4-carboxamide] was tested, and the “Myc Efficacy (−LogEC50)” value was “++ (++ ≥5 and <6)”.

For `COc1ccc(-c2noc(N3CCC(C(=O)NCC4CCN(Cc5ncccc5C)C4)CC3)n2)cc1` (centres unmarked) [Compound 350, 1-(3-(4-methoxyphenyl)-1,2,4-oxadiazol-5-yl)-N-((1-((3-methylpyridin-2-yl)methyl)pyrrolidin-3-yl)methyl)piperidine-4-carboxamide], the “Myc Efficacy (−LogEC50)” value was “++ (++ ≥5 and <6)”.

In the case of `COc1ccc(-c2noc(N3CCC(C(=O)NCC4CCN(Cc5ccc(C)nc5)C4)CC3)n2)cc1` (centres unmarked) [Compound 351, 1-(3-(4-methoxyphenyl)-1,2,4-oxadiazol-5-yl)-N-((1-((6-methylpyridin-3-yl)methyl)pyrrolidin-3-yl)methyl)piperidine-4-carboxamide], the “Myc Efficacy (−LogEC50)” value is reported as “++ (++ ≥5 and <6)”.

`COc1ccc(-c2noc(N3CCC(C(=O)NCC4CCN(Cc5ccns5)C4)CC3)n2)cc1` (centres unmarked) [Compound 352, N-((1-(isothiazol-5-ylmethyl)pyrrolidin-3-yl)methyl)-1-(3-(4-methoxyphenyl)-1,2,4-oxadiazol-5-yl)piperidine-4-carboxamide] was tested, and the “Myc Efficacy (−LogEC50)” value was “++ (++ ≥5 and <6)”.

With `COc1ccc(-c2noc(N3CCC(C(=O)NCC4CCN(CC5CCN(C)CC5)C4)CC3)n2)cc1` (centres unmarked) [Compound 353, 1-(3-(4-methoxyphenyl)-1,2,4-oxadiazol-5-yl)-N-((1-((1-methylpiperidin-4-yl)methyl)pyrrolidin-3-yl)methyl)piperidine-4-carboxamide] the “Myc Efficacy (−LogEC50)” value was “++ (++ ≥5 and <6)”.

For `COc1ccc(-c2noc(N3CCC(C(=O)NCC4CCN(CC5CCSCC5)C4)CC3)n2)cc1` (centres unmarked) [Compound 354, 1-(3-(4-methoxyphenyl)-1,2,4-oxadiazol-5-yl)-N-((1-((tetrahydro-2H-thiopyran-4-yl)methyl)pyrrolidin-3-yl)methyl)piperidine-4-carboxamide], the “Myc Efficacy (−LogEC50)” value was “++ (++ ≥5 and <6)”.

With `COc1ccc(-c2noc(N3CCC(C(=O)NCC4CCN(CC5CCOCC5)C4)CC3)n2)cc1` (centres unmarked) [Compound 355, 1-(3-(4-methoxyphenyl)-1,2,4-oxadiazol-5-yl)-N-((1-((tetrahydro-2H-pyran-4-yl)methyl)pyrrolidin-3-yl)methyl)piperidine-4-carboxamide] the “Myc Efficacy (−LogEC50)” value was “+ (+ >3 and <5)”.

`COc1ccc(-c2noc(N3CCC(C(=O)NCC4CCN(Cc5cccnc5)C4)CC3)n2)cc1` (centres unmarked) [Compound 356, 1-(3-(4-methoxyphenyl)-1,2,4-oxadiazol-5-yl)-N-((1-(pyridin-3-ylmethyl)pyrrolidin-3-yl)methyl)piperidine-4-carboxamide] was tested, and the “Myc Efficacy (−LogEC50)” value was “++ (++ ≥5 and <6)”.

For `COc1ccc(-c2noc(N3CCC(C(=O)NCC4CCN(Cc5ccsc5)C4)CC3)n2)cc1` (centres unmarked) [Compound 357, 1-(3-(4-methoxyphenyl)-1,2,4-oxadiazol-5-yl)-N-((1-(thiophen-3-ylmethyl)pyrrolidin-3-yl)methyl)piperidine-4-carboxamide], the “Myc Efficacy (−LogEC50)” value was “++ (++ ≥5 and <6)”.

In the case of `COc1ccc(-c2noc(N3CCC(C(=O)NCC4CCN(Cc5ccccc5F)C4)CC3)n2)cc1` (centres unmarked) [Compound 358, N-((1-(2-fluorobenzyl)pyrrolidin-3-yl)methyl)-1-(3-(4-methoxyphenyl)-1,2,4-oxadiazol-5-yl)piperidine-4-carboxamide], the “Myc Efficacy (−LogEC50)” value is reported as “++ (++ ≥5 and <6)”.

`COc1ccc(-c2noc(N3CCC(C(=O)NCC4CCN(Cc5ccncc5F)C4)CC3)n2)cc1` (centres unmarked) [Compound 359, N-((1-((3-fluoropyridin-4-yl)methyl)pyrrolidin-3-yl)methyl)-1-(3-(4-methoxyphenyl)-1,2,4-oxadiazol-5-yl)piperidine-4-carboxamide] was tested, and the “Myc Efficacy (−LogEC50)” value was “++ (++ ≥5 and <6)”.

For `COc1ccc(-c2noc(N3CCC(C(=O)NCC4CCN(Cc5cscn5)C4)CC3)n2)cc1` (centres unmarked) [Compound 360, 1-(3-(4-methoxyphenyl)-1,2,4-oxadiazol-5-yl)-N-((1-(thiazol-4-ylmethyl)pyrrolidin-3-yl)methyl)piperidine-4-carboxamide], the “Myc Efficacy (−LogEC50)” value was “+ (+ >3 and <5)”.
